Measured values from ChEMBL document CHEMBL1201862, “PubChem BioAssay data set” (2004).
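Tested at 5 concentrations; 48 h exposure; 96-well plates; endpoints linearly interpolated, else capped at highest concentration. At the GI50, growth is halved.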 Activity calls are given as the source filed them. Cut-off read from the data, not from the text of the source: active = GI50 up to about 1.1 µM and inactive = higher.

Experiments:
Experiment in all cases: NCI tumour cell line growth inhibition, 48 h
786-0 = tested on: 786-0
A498 = tested on: A498
A549 = tested on: A549
ACHN = tested on: ACHN
BT-549 = tested on: BT-549
CAKI-1 = tested on: CAKI-1
CCRF-CEM = tested on: CCRF-CEM
COLO 205 = tested on: COLO 205
DU-145 = tested on: DU-145
EKVX = tested on: EKVX
HCC 2998 = tested on: HCC 2998
HCT-116 = tested on: HCT-116
HCT-15 = tested on: HCT-15
HL-60 = tested on: HL-60
HOP-62 = tested on: HOP-62
HOP-92 = tested on: HOP-92
HT-29 = tested on: HT-29
Hs-578T = tested on: Hs-578T
IGROV-1 = tested on: IGROV-1
K562 = tested on: K562
KM12 = tested on: KM12
LOX IMVI = tested on: LOX IMVI
M14 = tested on: M14
MCF7 = tested on: MCF7
MDA-MB-231 = tested on: MDA-MB-231
MDA-MB-435 = tested on: MDA-MB-435
MDA-N = tested on: MDA-N
MOLT-4 = tested on: MOLT-4
Malme-3M = tested on: Malme-3M
NCI-H226 = tested on: NCI-H226
NCI-H23 = tested on: NCI-H23
NCI-H460 = tested on: NCI-H460
NCI-H522 = tested on: NCI-H522
NCI/ADR-RES = tested on: NCI/ADR-RES
OVCAR-3 = tested on: OVCAR-3
OVCAR-4 = tested on: OVCAR-4
OVCAR-5 = tested on: OVCAR-5
OVCAR-8 = tested on: OVCAR-8
PC-3 = tested on: PC-3
RPMI-8226 = tested on: RPMI-8226
RXF 393 = tested on: RXF 393
SF-268 = tested on: SF-268
SF-295 = tested on: SF-295
SF-539 = tested on: SF-539
SK-MEL-28 = tested on: SK-MEL-28
SK-MEL-2 = tested on: SK-MEL-2
SK-MEL-5 = tested on: SK-MEL-5
SK-OV-3 = tested on: SK-OV-3
SN12C = tested on: SN12C
SNB-19 = tested on: SNB-19
SNB-75 = tested on: SNB-75
SR = tested on: SR
SW-620 = tested on: SW-620
T47D = tested on: T47D
TK-10 = tested on: TK-10
U-251 = tested on: U-251
UACC-257 = tested on: UACC-257
UACC-62 = tested on: UACC-62
UO-31 = tested on: UO-31

Structure (SMILES): CN(C)CC1CN/C(=N\C(=O)Nc2ccccc2)O1 (stereo not drawn)
- GI50 (786-0): > 100 µM (inactive)
- GI50 (A498): 42.3 µM (inactive)
- GI50 (A549): > 100 µM (inactive)
- GI50 (ACHN): > 100 µM (inactive)
- GI50 (BT-549): > 100 µM (inactive)
- GI50 (CAKI-1): > 100 µM (inactive)
- GI50 (CCRF-CEM): > 100 µM (inactive)
- GI50 (COLO 205): > 100 µM (inactive)
- GI50 (DU-145): > 100 µM (inactive)
- GI50 (EKVX): > 100 µM (inactive)
- GI50 (HCC 2998): > 100 µM (inactive)
- GI50 (HCT-116): > 100 µM (inactive)
- GI50 (HCT-15): > 100 µM
- GI50 (HL-60): > 100 µM (inactive)
- GI50 (HOP-62): > 100 µM (inactive)
- GI50 (HOP-92): > 100 µM (inactive)
- GI50 (HT-29): > 100 µM (inactive)
- GI50 (Hs-578T): > 100 µM (inactive)
- GI50 (IGROV-1): > 100 µM (inactive)
- GI50 (K562): > 100 µM (inactive)
- GI50 (KM12): > 100 µM (inactive)
- GI50 (LOX IMVI): > 100 µM (inactive)
- GI50 (M14): > 100 µM (inactive)
- GI50 (MCF7): > 100 µM (inactive)
- GI50 (MDA-MB-231): > 100 µM (inactive)
- GI50 (MDA-MB-435): > 100 µM (inactive)
- GI50 (MDA-N): > 100 µM (inactive)
- GI50 (MOLT-4): > 100 µM (inactive)
- GI50 (Malme-3M): > 100 µM (inactive)
- GI50 (NCI-H226): > 100 µM (inactive)
- GI50 (NCI-H23): > 100 µM (inactive)
- GI50 (NCI-H460): > 100 µM (inactive)
- GI50 (NCI-H522): > 100 µM (inactive)
- GI50 (NCI/ADR-RES): > 100 µM (inactive)
- GI50 (OVCAR-3): > 10 µM (inactive)
- GI50 (OVCAR-4): > 100 µM (inactive)
- GI50 (OVCAR-5): > 100 µM (inactive)
- GI50 (OVCAR-8): > 100 µM (inactive)
- GI50 (PC-3): > 100 µM (inactive)
- GI50 (RPMI-8226): > 100 µM (inactive)
- GI50 (RXF 393): > 100 µM (inactive)
- GI50 (SF-268): > 100 µM (inactive)
- GI50 (SF-295): > 100 µM (inactive)
- GI50 (SF-539): > 100 µM (inactive)
- GI50 (SK-MEL-28): > 100 µM (inactive)
- GI50 (SK-MEL-2): > 100 µM (inactive)
- GI50 (SK-MEL-5): > 100 µM (inactive)
- GI50 (SK-OV-3): > 100 µM (inactive)
- GI50 (SN12C): > 100 µM (inactive)
- GI50 (SNB-19): > 100 µM (inactive)
- GI50 (SNB-75): > 100 µM (inactive)
- GI50 (SR): > 100 µM (inactive)
- GI50 (SW-620): > 100 µM (inactive)
- GI50 (T47D): > 100 µM (inactive)
- GI50 (TK-10): > 100 µM (inactive)
- GI50 (U-251): > 100 µM (inactive)
- GI50 (UACC-257): > 100 µM (inactive)
- GI50 (UACC-62): > 100 µM (inactive)
- GI50 (UO-31): > 100 µM (inactive)

Structure (SMILES): CCO[C@@]12CCC3CC4CC[C@@](OCC)(O1)C4C32 (stereo partly drawn)
- GI50 (786-0): > 100 µM (inactive)
- GI50 (A498): > 100 µM (inactive)
- GI50 (A549): > 100 µM (inactive)
- GI50 (ACHN): > 100 µM (inactive)
- GI50 (BT-549): > 100 µM (inactive)
- GI50 (CAKI-1): > 100 µM (inactive)
- GI50 (CCRF-CEM): > 100 µM (inactive)
- GI50 (COLO 205): > 100 µM (inactive)
- GI50 (DU-145): > 100 µM (inactive)
- GI50 (EKVX): > 100 µM (inactive)
- GI50 (HCC 2998): > 100 µM (inactive)
- GI50 (HCT-116): > 100 µM (inactive)
- GI50 (HCT-15): > 100 µM
- GI50 (HL-60): > 100 µM (inactive)
- GI50 (HOP-62): > 100 µM (inactive)
- GI50 (HOP-92): > 100 µM (inactive)
- GI50 (HT-29): > 100 µM (inactive)
- GI50 (Hs-578T): > 100 µM (inactive)
- GI50 (IGROV-1): > 100 µM (inactive)
- GI50 (K562): > 100 µM (inactive)
- GI50 (KM12): > 100 µM (inactive)
- GI50 (LOX IMVI): > 100 µM (inactive)
- GI50 (M14): > 100 µM (inactive)
- GI50 (MCF7): > 100 µM (inactive)
- GI50 (MDA-MB-231): > 100 µM (inactive)
- GI50 (MDA-MB-435): > 100 µM (inactive)
- GI50 (MDA-N): > 100 µM (inactive)
- GI50 (MOLT-4): > 100 µM (inactive)
- GI50 (Malme-3M): > 100 µM (inactive)
- GI50 (NCI-H226): > 100 µM (inactive)
- GI50 (NCI-H23): > 100 µM (inactive)
- GI50 (NCI-H460): > 100 µM (inactive)
- GI50 (NCI-H522): > 100 µM (inactive)
- GI50 (NCI/ADR-RES): > 100 µM (inactive)
- GI50 (OVCAR-3): > 100 µM (inactive)
- GI50 (OVCAR-4): > 100 µM (inactive)
- GI50 (OVCAR-5): > 100 µM (inactive)
- GI50 (OVCAR-8): > 100 µM (inactive)
- GI50 (PC-3): > 100 µM (inactive)
- GI50 (RPMI-8226): > 100 µM (inactive)
- GI50 (RXF 393): > 100 µM (inactive)
- GI50 (SF-268): > 100 µM (inactive)
- GI50 (SF-295): > 100 µM (inactive)
- GI50 (SF-539): > 100 µM (inactive)
- GI50 (SK-MEL-28): > 100 µM (inactive)
- GI50 (SK-MEL-2): > 100 µM (inactive)
- GI50 (SK-MEL-5): > 100 µM (inactive)
- GI50 (SK-OV-3): > 100 µM (inactive)
- GI50 (SN12C): > 100 µM (inactive)
- GI50 (SNB-19): > 100 µM (inactive)
- GI50 (SNB-75): > 100 µM (inactive)
- GI50 (SR): > 100 µM (inactive)
- GI50 (SW-620): > 100 µM (inactive)
- GI50 (T47D): > 100 µM (inactive)
- GI50 (TK-10): > 100 µM (inactive)
- GI50 (U-251): > 100 µM (inactive)
- GI50 (UACC-257): > 100 µM (inactive)
- GI50 (UACC-62): > 100 µM (inactive)
- GI50 (UO-31): > 100 µM (inactive)
